Assays:
Nedd8 = biological target: T1, Nedd8 (Homo sapiens, UniProt Q8TBC4); experiment: Nedd8 activity (Table I, biological activities); type: biochemical; set-up: key: + (less active); ++ (active); +++ (most active)
T1 sequence (Q8TBC4 1-463): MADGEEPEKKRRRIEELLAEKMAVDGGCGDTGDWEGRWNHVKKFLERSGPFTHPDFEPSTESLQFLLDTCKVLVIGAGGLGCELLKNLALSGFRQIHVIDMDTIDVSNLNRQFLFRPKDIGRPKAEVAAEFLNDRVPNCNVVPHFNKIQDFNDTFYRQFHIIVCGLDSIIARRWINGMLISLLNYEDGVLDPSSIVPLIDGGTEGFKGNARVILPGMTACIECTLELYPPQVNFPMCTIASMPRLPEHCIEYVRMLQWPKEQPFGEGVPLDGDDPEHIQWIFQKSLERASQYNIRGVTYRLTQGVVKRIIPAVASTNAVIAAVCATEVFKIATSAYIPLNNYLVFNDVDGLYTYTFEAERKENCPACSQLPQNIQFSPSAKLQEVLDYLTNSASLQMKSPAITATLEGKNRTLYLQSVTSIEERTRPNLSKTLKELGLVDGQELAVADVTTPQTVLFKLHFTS
T1 sequence (Q13564 1-534 partner): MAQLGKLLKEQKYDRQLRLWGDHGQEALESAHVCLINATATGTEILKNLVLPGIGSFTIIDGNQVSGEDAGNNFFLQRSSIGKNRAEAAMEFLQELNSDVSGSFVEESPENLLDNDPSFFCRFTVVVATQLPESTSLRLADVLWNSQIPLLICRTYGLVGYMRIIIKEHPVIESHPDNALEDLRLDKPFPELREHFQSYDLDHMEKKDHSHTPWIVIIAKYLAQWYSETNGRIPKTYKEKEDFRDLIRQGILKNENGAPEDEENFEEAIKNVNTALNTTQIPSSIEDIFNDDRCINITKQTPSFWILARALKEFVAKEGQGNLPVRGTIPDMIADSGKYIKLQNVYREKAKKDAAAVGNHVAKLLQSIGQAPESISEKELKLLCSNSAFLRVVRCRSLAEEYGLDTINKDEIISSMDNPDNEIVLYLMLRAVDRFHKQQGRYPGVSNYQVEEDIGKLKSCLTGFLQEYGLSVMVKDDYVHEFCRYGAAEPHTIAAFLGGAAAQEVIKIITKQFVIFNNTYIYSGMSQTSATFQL

SUMO = biological target: T2, SUMO (Homo sapiens, UniProt Q9UBT2); experiment: SUMO activity (Table I, biological activities); type: biochemical; set-up: key: + (less active); ++ (active); +++ (most active)
T2 sequence (Q9UBT2 1-640): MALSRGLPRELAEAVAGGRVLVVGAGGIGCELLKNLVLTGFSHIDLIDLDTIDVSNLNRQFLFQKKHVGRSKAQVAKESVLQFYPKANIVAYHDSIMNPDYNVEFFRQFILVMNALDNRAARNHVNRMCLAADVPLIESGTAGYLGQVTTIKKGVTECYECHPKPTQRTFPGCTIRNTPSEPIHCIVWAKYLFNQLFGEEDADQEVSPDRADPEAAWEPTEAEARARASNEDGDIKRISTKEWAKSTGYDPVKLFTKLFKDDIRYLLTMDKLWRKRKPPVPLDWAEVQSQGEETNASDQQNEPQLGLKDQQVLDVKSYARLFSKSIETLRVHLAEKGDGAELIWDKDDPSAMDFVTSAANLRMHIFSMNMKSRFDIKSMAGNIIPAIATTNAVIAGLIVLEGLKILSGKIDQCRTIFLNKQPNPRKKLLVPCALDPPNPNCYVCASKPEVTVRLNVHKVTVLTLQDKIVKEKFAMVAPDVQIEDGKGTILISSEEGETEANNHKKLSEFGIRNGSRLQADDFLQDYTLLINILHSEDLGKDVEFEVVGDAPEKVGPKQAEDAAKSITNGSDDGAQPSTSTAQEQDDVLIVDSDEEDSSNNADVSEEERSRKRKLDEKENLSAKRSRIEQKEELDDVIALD
T2 sequence (Q9UBE0 1-346 partner): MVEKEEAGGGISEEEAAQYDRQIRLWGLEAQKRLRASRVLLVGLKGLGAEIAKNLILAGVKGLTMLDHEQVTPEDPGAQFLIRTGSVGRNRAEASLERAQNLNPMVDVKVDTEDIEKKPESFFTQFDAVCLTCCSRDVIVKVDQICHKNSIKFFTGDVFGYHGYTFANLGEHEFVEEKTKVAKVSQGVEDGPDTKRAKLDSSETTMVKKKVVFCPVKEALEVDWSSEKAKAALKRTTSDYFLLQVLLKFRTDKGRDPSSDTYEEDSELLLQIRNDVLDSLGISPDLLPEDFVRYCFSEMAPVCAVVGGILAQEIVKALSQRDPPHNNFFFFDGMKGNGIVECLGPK

c-Myc = c-Myc activity (Table I, biological activities); set-up: key: + (less active); ++ (active); +++ (most active)
Ubiquitin = biological target: T3, Ubiquitin (Homo sapiens, UniProt P22314); experiment: Ubiquitin activity (Table I, biological activities); type: biochemical; set-up: key: + (less active); ++ (active); +++ (most active)
T3 sequence (P22314 1-1058): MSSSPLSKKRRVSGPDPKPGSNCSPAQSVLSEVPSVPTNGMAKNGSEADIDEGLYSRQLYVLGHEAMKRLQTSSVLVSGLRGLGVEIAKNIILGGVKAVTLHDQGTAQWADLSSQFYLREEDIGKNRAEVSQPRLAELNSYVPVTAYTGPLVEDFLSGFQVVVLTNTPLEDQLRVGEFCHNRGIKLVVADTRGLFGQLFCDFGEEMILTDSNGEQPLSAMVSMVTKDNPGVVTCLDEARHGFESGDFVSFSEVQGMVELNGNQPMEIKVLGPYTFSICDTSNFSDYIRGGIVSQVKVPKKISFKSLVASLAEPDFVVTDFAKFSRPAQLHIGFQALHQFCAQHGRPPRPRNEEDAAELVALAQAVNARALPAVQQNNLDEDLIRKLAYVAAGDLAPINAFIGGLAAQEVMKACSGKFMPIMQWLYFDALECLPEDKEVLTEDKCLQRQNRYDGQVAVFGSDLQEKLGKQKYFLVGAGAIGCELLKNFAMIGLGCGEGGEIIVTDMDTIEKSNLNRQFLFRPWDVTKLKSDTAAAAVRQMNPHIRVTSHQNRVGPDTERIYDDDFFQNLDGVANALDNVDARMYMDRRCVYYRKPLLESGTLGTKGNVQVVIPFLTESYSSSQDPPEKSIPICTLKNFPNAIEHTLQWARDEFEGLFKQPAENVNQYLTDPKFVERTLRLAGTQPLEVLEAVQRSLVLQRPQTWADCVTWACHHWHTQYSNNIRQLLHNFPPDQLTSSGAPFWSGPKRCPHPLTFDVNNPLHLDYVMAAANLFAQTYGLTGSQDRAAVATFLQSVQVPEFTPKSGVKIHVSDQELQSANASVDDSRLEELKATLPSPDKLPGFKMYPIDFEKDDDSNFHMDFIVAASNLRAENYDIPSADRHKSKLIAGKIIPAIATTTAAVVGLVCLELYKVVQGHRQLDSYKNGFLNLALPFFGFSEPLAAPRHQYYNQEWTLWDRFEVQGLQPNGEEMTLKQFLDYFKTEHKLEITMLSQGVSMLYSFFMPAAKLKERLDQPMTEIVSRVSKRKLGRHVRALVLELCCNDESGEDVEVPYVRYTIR

[1] = tested on: cancer stem cell (CSC) populations in patient derived xenograft (PDX) models; experiment: Limited dilution assays of cancer stem cell populations in PDX models (FIG. 1); type: cell-based; conditions: 1 μM to 10 μM
Description: FIG. 1. Examination of the effect of compounds 582 and 588 to reduce cancer stem cell (CSC) populations in patient derived xenograft (PDX) models using limited dilution assays.

COC(=O)C1=C(C(=O)NCCN(C)C)C2C=CC1(C(Cc1ccccc1)Nc1cccc(CO)c1)O2 (stereo not shown) [Compound 535]
Nedd8 (Nedd8): ++ | SUMO (SUMO): +++ | c-Myc (c-Myc): ++ | Ubiquitin (Ubiquitin): +

CCOC(=O)C1=C(C(=O)Nc2c(C)cccc2C)C2C=CC1(C(Nc1ccccc1)c1ccc(CN3CCOCC3)cc1)O2 (stereo not shown) [Compound 582]
SUMO (SUMO): ++ | c-Myc (c-Myc): ++ | inhibition on PDX cancer-initiating-cell (CIC) frequency [1]: dose-dependent inhibition on PDX cancer-initiating-cell (CIC) frequency, even at 1 μM

CCOC(=O)C1=C(C(=O)Nc2c(CC)cccc2CC)C2C=CC1(C(Nc1ccccc1)c1ccc(CN3CCOCC3)cc1)O2 (stereo not shown) [Compound 588]
SUMO (SUMO): ++ | c-Myc (c-Myc): ++ | inhibition on PDX cancer-initiating-cell (CIC) frequency [1]: only showed inhibition on CIC at high dose 10 μM

Reference: US11578079B2, “SUMO inhibitor compounds and uses thereof” (CITY OF HOPE, priority 2018, dated 2023)
